Assay results as given in patent publication US6627621B2, “Neutrophil function inhibitors” (Dainichieseika Color & Chemicals Mfg. Co., Ltd., priority 2001, dated 2003).

Key:
Assay type in all cases: cell-based, Guinea pig
neutrophils [1] = assay: Generation of active oxygen by neutrophils (cytochrome c reduction method); details: 0.01, 0.1 and 1 mM, 37° C. 20 minutes preincubation
Procedure: A glycogen solution (0.17% glycogen-0.9% NaCl solution) was administered into the abdominal cavity of a Guinea pig. About 15 hours later, the abdominal cavity was washed with a 0.4% sodium citrate-0.9% NaCl solution to collect an exudate. The exudate contained neutrophils of 95% or higher purity. After the abdominal cavity exudate was washed twice with phosphate buffer (pH 7.4), the neutrophils were suspended in phosphate buffer (pH 7.4) to prepare a neutrophil suspension.
Inhibiting effects of a glucosamine salt on neutrophil functions were investigated with respect to the generation of active oxygen, ingesting effect and extra-cellular releasing effect on granular components by methods to be described subsequently herein. Data are each shown as a mean ± standard deviation S.D. of three or more samples. Further, a test was conducted using an AVOVA.
Glucosamine hydrochloride was added at 0.01 mM, 0.1 mM and 1 mM to aliquots of a neutrophil suspension (neutrophil concentration: 10^6 cells/mL), respectively, followed by incubation at 37° C. for 20 minutes. To each of the reaction mixtures, N-formyl-1-methionyl-1-leucyl-1-phenylalanine (FMLP; 10^−7 M) or opsonized zymosan (OPZ; count ratio of OPZ to neutrophils: 1:6) was added as an emigrating factor to stimulate neutrophils for 30 minutes. Generated active oxygen was measured by the cytochrome c reduction method. […]

neutrophils [2] = assay: Ingesting ability of neutrophils (ingestion of opsonized zymosan, ingestion index); details: 0.01, 0.1 and 1 mM, 37° C. 20 minutes preincubation; OPZ (1:6) 30 minutes; FIG. 3
Procedure: (§1) A glycogen solution (0.17% glycogen-0.9% NaCl solution) was administered into the abdominal cavity of a Guinea pig. About 15 hours later, the abdominal cavity was washed with a 0.4% sodium citrate-0.9% NaCl solution to collect an exudate. The exudate contained neutrophils of 95% or higher purity. After the abdominal cavity exudate was washed twice with phosphate buffer (pH 7.4), the neutrophils were suspended in phosphate buffer (pH 7.4) to prepare a neutrophil suspension. Inhibiting effects of a glucosamine salt on neutrophil functions were investigated with respect to the generation of active oxygen, ingesting effect and extra-cellular releasing effect on granular components by methods to be described subsequently herein. Data are each shown as a mean ± standard deviation S.D. of three or more samples. Further, a test was conducted using an AVOVA. Glucosamine hydrochloride was added at 0.01 mM, 0.1 mM and 1 mM to aliquots of a neutrophil suspension (neutrophil concentration: 10^7 cells/mL), respectively, followed by incubation at 37° C. for 20 minutes. To each of the reaction mixtures, opsonized zymosan (OPZ; count ratio of OPZ to neutrophils: 1:6) was added, followed by a reaction for 30 minutes. The count of the yeast ingested by neutrophils was determined under a microscope, and was expressed in terms of an ingestion index.

neutrophils [3] = assay: Extracellular release of granular enzyme lysozyme from neutrophils; details: 0.01, 0.1 and 1 mM, 37° C. 20 minutes preincubation; OPZ (1:6) 30 minutes; FIG. 4
Procedure: as §1, with “[…] The reaction mixture was centrifuged, the supernatant was collected, and then, the activity” for “To each”, “granular enzyme, lysozyme, released to the outside” for “reaction mixtures, opsonized zymosan (OPZ; count ratio”, “cells” for “OPZ to neutrophils: 1:6)”, “measured” for “added, followed”, “calorimetrically quantitating dissolution” for “a reaction for 30 minutes. The count”, “Micrococcus lysodeikticus cells.” for “the yeast ingested by neutrophils was determined under a microscope, and was expressed in terms of an ingestion index.”

neutrophils [4] = assay: Emigrating ability of neutrophils (Boyden's chamber, C5a as emigrating factor); details: 0.01, 0.1 and 1 mM, 37° C. 20 minutes preincubation, 3 μm membrane, FIG. 5
Procedure: A glycogen solution (0.17% glycogen-0.9% NaCl solution) was administered into the abdominal cavity of a Guinea pig. About 15 hours later, the abdominal cavity was washed with a 0.4% sodium citrate-0.9% NaCl solution to collect an exudate. The exudate contained neutrophils of 95% or higher purity. After the abdominal cavity exudate was washed twice with phosphate buffer (pH 7.4), the neutrophils were suspended in phosphate buffer (pH 7.4) to prepare a neutrophil suspension. The emigrating ability of neutrophils was measured by using as an emigrating factor the component factor C5 a generated by reacting fresh serum with a yeast. Described specifically, glucosamine hydrochloride was added at 0.01 mM, 0.1 mM and 1 mM to aliquots of a neutrophil suspension (neutrophil concentration: 3×10^6 cells/mL), respectively, followed by incubation at 37° C. for 20 minutes. The reaction mixtures were separately placed in Boyden's chambers each of which was equipped with a nitrocellulose membrane of 3 μm in pore size, and were then incubated at 37° C. for 20 minutes. After the reaction, distances over which neutrophils had emigrated were measured under a microscope.

Cl.N[C@H]1C(O)O[C@H](CO)[C@@H](O)[C@@H]1O (some centres unmarked) [glucosamine hydrochloride, Glucosamine hydrochloride]
formation of active oxygen by FMLP (neutrophils [1]; FMLP 10^-7 M stimulation 30 minutes, FIG. 1): inhibited in a concentration-dependent manner
formation of active oxygen by opsonized zymosan (neutrophils [1]; OPZ (1:6) stimulation 30 minutes, FIG. 2): inhibited in a concentration-dependent manner
ingestion of opsonized zymosan by neutrophils (neutrophils [2]): inhibited in a concentration-dependent manner
extracellular release of the granular enzyme (lysozyme) from neutrophils by opsonized zymosan (neutrophils [3]): significantly inhibited
emigrating ability of neutrophils (neutrophils [4]): inhibited in a concentration-dependent manner
